# From patent US8637237B2, “Methods, compositions, and systems for the identification of species-specific or developmental stage-specific insecticides” (The University of North Carolina at Greensboro, priority 2003, dated 2014)
# Target: T1, EcRB1/DmUSPF2 (Drosophila melanogaster, UniProt P34021)
# T1 construct: The plasmid encodes a version of EcRB1 that includes 878 amino acids, and deletes the F domain; expressed in transfected cells; host or cells: CHO (mammalian cells)
# T1 sequence (P34021 1-878): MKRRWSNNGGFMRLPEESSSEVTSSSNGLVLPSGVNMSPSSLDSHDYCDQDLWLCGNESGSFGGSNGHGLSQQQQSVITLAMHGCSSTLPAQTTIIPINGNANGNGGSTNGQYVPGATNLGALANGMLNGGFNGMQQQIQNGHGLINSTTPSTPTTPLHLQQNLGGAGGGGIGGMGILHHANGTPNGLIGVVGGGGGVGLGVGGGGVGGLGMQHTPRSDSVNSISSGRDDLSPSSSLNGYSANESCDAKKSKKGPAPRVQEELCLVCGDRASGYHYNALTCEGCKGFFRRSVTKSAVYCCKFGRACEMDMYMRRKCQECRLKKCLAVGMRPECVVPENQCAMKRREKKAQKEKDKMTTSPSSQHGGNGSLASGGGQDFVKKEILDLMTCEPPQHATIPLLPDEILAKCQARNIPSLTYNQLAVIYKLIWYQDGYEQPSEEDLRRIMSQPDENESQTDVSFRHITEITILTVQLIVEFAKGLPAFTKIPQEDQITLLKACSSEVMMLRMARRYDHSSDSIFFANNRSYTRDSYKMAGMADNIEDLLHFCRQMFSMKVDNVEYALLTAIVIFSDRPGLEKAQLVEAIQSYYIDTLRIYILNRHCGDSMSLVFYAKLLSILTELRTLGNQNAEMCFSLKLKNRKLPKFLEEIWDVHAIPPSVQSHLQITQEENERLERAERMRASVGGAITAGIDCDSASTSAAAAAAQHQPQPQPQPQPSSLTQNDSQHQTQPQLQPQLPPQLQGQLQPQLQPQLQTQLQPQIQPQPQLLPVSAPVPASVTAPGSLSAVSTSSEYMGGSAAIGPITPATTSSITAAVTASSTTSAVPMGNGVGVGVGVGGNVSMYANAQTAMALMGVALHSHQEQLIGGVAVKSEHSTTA
# T1 sequence (P20153 104-507 partner limits assumed): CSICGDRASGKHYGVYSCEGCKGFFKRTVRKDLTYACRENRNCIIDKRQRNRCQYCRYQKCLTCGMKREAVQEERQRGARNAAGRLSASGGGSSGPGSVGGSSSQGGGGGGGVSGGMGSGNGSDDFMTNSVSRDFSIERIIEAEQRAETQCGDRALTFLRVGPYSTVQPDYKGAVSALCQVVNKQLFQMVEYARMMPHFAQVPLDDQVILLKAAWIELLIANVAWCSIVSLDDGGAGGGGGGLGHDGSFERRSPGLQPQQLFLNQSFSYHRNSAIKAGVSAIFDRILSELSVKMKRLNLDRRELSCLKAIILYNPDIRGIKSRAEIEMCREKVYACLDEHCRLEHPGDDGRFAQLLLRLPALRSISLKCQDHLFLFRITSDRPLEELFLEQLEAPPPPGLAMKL
# Experiment: Drosophila EcRB1 with Drosophila USPF2, luciferase reporter in mammalian cells (FIG. 6)
# Format: cell-based
# Conditions: for increase of the effect of 0.1 μM murA: with 0.1 μM murA
# Method: Unless noted otherwise, 100 ng of each EcR and USP plasmid was transfected into 2 ml of cell culture medium. As noted above, a reporter gene carrying five tandem copies of the hsp27 ecdysone response element (Riddihough and Pelham, 1986) is attached to a constitutive thymidine kinase promoter and a luciferase reporter gene (pEcREtk-LUC) and cotransfected into the cells along with vectors expressing EcR, USP, and a constitutively active β-galactosidase gene with lipofection, following manufacturer's protocols. The subsequent measure of luciferase activity reflects ecdysteroid-inducible transcription.
# The Drosophila EcR isoform vectors (A, B1, and B2) used for these experiments have been described previously (Mouillet et al, 2001). These vectors lack the F-domain, which is also not essential for in vivo function (Cherbas et al, 2003). Additionally, three different VP16-USP vectors were utilized. Construction is of the VP16-USP vectors is described below. As in the earlier study, hsp27-EcRE mediated transcriptional activity was measured by detecting the luminescence produced by luciferase in transfected cell extracts. Luciferase activity was normalized by transfection with a plasmid that constitutively expresses the β-galactosidase gene such that enzymatic activity correlated with cellular mass.
# After a 4 hour transfection period, the hormone treatment was applied by diluting stock solutions of muristerone A (murA; Alexis Corporation, San Diego, Calif.), JHI (Scitech), JHIII (Sigma, St Louis, Mo.), and/or 20E (Sigma, St Louis, Mo.) in DMSO. The cells were harvested 24 hours after treatment and the contents of the cells extracted for performing the luciferase and β-galactosidase assays.
Structure (SMILES),increase of the effect of 0.1 μM murA,stimulation of EcRB1/USPF2 complex (0.1 μM and 1.0 μM murA)
"COC(=O)/C=C(\C)CC/C=C(\C)CC[C@H]1OC1(C)C [JHIII, juvenile hormone III]",increased,–
CC(C)=CCCC(C)=CCCC(C)=CC(=O)O [farnesoic acid],increased,–
COC(=O)/C=C(\C)CC/C=C(\C)CCC=C(C)C [methyl farnesoate],increased,–
"CC(C)CC[C@@H](O)[C@](C)(O)[C@H]1CC[C@@]2(O)C3=CC(=O)[C@]4(O)C[C@@H](O)[C@@H](O)C[C@]4(C)[C@H]3[C@H](O)C[C@]12C [murA, muristerone A]",–,stimulated
